Non-standard residues stand in square brackets, D forms with d. Phg = N[C@H](C(=O)O)c1ccccc1
Each substance was assayed against T1, elastase (Sus scrofa, UniProt P00772) (assay: Elastase inhibition assay (EnzChek Elastase Assay Kit, DQ Elastin substrate)). Conditions: peptides at 0.1 mM, pre-incubated 1 hour with 0.4 unit/mL elastase; DQ Elastin 25 μg/mL, 2 h; normalized to baseline.
T1 construct: purchased Molecular Probes
Format: biochemical
Protocol: The peptides were resuspended in water in the presence of 0.5% DMSO. The assay was conducted on black microplates with 96 wells using the EnzChek® Elastase Assay Kit (Molecular Probes). For this purpose, the peptides were pre-incubated at 0.1 mM for 1 hour with 0.4 unit/mL of elastase at room temperature with moderate stirring, after which the conjugated substrate was added to fluorescein (DQ™ Elastin) at a final concentration of 25 μg/mL and reactions were incubated for 2 h at room temperature with stirring and protected from light. The substrate, whose fluorescence is inhibited, is digested by elastase to release fluorescent fragments which are monitored by fluorescence with a FLUOstar galaxy reader (BMG LabTechnologies) using 485 nm filters for excitation and 530 nm filters for emission.
Inhibition values were normalized with respect to baseline values of average inhibition.

T1 sequence (P00772 27-266): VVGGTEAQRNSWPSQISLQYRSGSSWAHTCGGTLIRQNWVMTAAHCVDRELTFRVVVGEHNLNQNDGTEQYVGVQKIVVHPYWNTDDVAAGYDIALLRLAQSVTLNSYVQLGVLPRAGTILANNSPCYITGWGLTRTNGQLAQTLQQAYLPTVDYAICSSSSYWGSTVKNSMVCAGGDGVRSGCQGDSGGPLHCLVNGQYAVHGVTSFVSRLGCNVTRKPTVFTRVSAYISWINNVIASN

Point of comparison: Ac-L-Nle-Phg-L-Val-Phg-OH, “Elastase inhibition percentage (% inhibition)” value 73.8%. Against it:
- Ac-L-Arg-Phg-L-Trp-Phg-NH—(CH2)15—CH3 — lower, 53.7%
- Ac-L-Arg-Phg-L-Trp-Phg-OH — higher, 90.3%
- Ac-L-Arg-Phg-L-Val-Phg-OH — higher, 82.3%
- Ac-L-Nle-Phg-L-Trp-Gly-OH — lower, 69.6%
- Ac-L-Nle-Phg-L-Trp-Phg-OH — higher, 90.0%
- Ac-L-Nle-Phg-L-Val-Gly-OH — lower, 62.7%
- Ac-Phg-L-Trp-Phg-OH — lower, 45.1%
- Ac-Phg-Phg-L-Trp-Gly-OH — lower, 65.0%
- Ac-Phg-Phg-L-Trp-Phg-OH — higher, 84.2%
- Ac-Phg-Phg-L-Val-Phg-OH — higher, 76.1%
- Ac-R[Phg]VG-OH — higher, 81.4%
- Ac-R[Phg]WG-OH — lower, 66.9%
- Ac-[Phg][Phg]VG-OH — lower, 64.2%
- Palm-L-Arg-Phg-L-Trp-Phg-NH2 — lower, 57.1%

The substances below were run against T2, Human neutrophil elastase (Homo sapiens, UniProt P08246) (assay: Human elastase inhibition assay (fluorogenic substrate MeOSuc-Ala-Ala-Pro-Val aminomethyl coumarin)). Conditions: 0.2 μg/ml protease, peptides 0.05-2 mM, 1 hour preincubation, substrate 25 μg/mL, 2 h; read-out: IC50 (minimum inhibitory concentration of peptides against human elastase).
T2 sequence (P08246 30-267): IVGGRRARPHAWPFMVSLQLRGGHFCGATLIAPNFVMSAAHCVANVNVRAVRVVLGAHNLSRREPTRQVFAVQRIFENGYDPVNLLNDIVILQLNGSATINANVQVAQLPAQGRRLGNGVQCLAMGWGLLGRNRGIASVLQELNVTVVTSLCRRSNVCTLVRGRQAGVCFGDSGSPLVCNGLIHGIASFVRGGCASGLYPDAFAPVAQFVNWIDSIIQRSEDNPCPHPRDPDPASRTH
Format: biochemical
Protocol: Human neutrophil elastase was reconstituted at 5 μg/mL in 50 mM sodium acetate, 200 mm NaCl, pH 5.5 buffer. 0.2 μg/ml of protease were preincubated with the peptides at a final concentration of 0.05-2 mM in a black microplate with 96 wells for 1 hour at room temperature. After preincubation, 25 μg/mL of substrate (MeOSuc-Ala-Ala-Pro-Val aminomethyl coumarin) were added to the wells and the samples were incubated for 2 h at room temperature and protected from light. The fluorescence released by digestion of the substrate was measured with an automated multiplate fluorescence reader, exciting at 370 nm and reading at 460 nm.
The results were corrected from the baseline fluorescence value in the absence of elastase and product, and were normalized with respect to the fluorescence of the control, and the minimum inhibitory concentration for each of the peptides was determined.

Point of comparison: H-L-Arg-Phg-L-Val-Gly-OH, IC50 407 µM. Against it:
- H-L-Arg-Phg-L-Trp-Phg-OH — 4-fold lower, 103 µM
- H-L-Arg-Phg-L-Val-Phg-OH — 4.3-fold lower, 94 µM

The substances below were run on Human dermal fibroblasts (assay: Collagen synthesis stimulation assay (secreted Collagen Type I by ELISA)). Conditions: peptides at 15 μg/ml, 48 h, medium analysed by ELISA; normalized to vehicle negative control.
Format: cell-based
Protocol: Human dermal fibroblasts were grown until confluence in MI06 medium supplemented with specific growth factors for fibroblasts. Then, they were strypsinized and seeded at 5×10^4 cells/well in 24-well plates. After 24 h of incubation at 37° C. in 5% CO2 atmosphere, fresh medium was added with scalar dilutions of the peptides at 15 μg/ml or with vehicle as negative control. Cells were incubated for 48 additional hours, after which medium was collected.
The analysis of the amount of secreted Collagen Type I was performed by means of an ELISA assay. Briefly, 96-well plated were coated with 50 μL per well of the previously collected medium and allowed to adsorb overnight at 4° C. in a humidified atmosphere. Then the plates were washed 3 times with PBS (+0.05% Tween-20) and blocked for 1 h with 3% BSA. After blocking, the plates were treated with an anti-Collagen Type I antibody (1:1000 in PBS, 0.05% Tween-20, 1% BSA) for 2 h. After this incubation, the secondary antibody (goat anti-mouse IgG-HRP antibody, Molecular Probes, 1:1000 in PBS, 0.05% Tween-20, 1% BSA) was added. Plates were incubated with […] substrate for 30 min and the reaction was stopped by adding 3 M H2SO4. Absorbance at 490 nm was read using a microplate reader and collagen concentration determined using a linear regression standard curve for Collagen Type I. Values were normalized in respect to the collagen values for the negative control experiment and the increase in the Collagen Type I was calculated for all the treatments.

Point of comparison: H-L-Arg-Phg-L-Trp-Phg-OH, “Increase of Collagen Type I by treatment with the peptides” value 99%. Against it:
- H-L-Arg-Phg-L-Val-Gly-OH — lower, 16%
- H-L-Arg-Phg-L-Val-Phg-OH — lower, 18%
